Measurements reported in patent US10556920B2, “Phosphorus-containing heterocycles and a method for making and using” (University of Oregon, priority 2015, dated 2020).

Columns and labels:
Format in all cases: physicochemical
[1] = Fluorescence excitation/emission
From the text: ^1H and ^13C NMR spectra were obtained on a Varian 300 MHz spectrometer (^1H: […], ^13C: […]), Inova 500 MHz spectrometer (^1H: 500.10 MHz, ^13C: 125.75 MHz) or Varian 600 MHz spectrometer (^1H: 599.98 MHz, ^13C: 150.87 MHz). Chemical shifts (6) are expressed in ppm using non-deuterated solvent present in the bulk deuterated solvent (CDCl3: ^1H 7.26 ppm, ^13C 77.16 ppm; (CD3)2SO: ^1H 2.5 ppm, ^13C 39.52 ppm). Solvents and reagents were used as purchased from suppliers, unless anhydrous conditions were employed, in which solvents were freshly distilled from sodium/benzophenone under N2 atmosphere (THF) or as purchased in sealed, DriSolv containers (pyridine). Triphenylphosphite was freshly distilled under vacuum before use. Mass spectra were acquired with a Waters LCT Premier ESI-MS in positive mode using acetone as a solvent. UV-Vis spectra were acquired with a Hewlett-Packard 8453 UV-Visible spectrophotometer equipped with a 250 nm cutoff filter. Fluorescence data was acquired with a Horiba Jobin-Yvon FluoroMax-4 fluorescence spectrophotometer. HPLC performed using a JAI Recycling Preparative HPLC (Model LC-9101) with a JAIGEL-1H preparative column.
The compounds gave fluorescence emissions similar to those of carbostyril. (3-Ph-carbostyril ex: 345 nm, em: 410 nm; II-3 ex: 354 nm, em: 427 nm).
The only scaffold which responded to the addition of acid was one containing a 2-pyridyl substituent, which directly corresponded to protonation of the pyridine. The N—H proton of the NH—P(OPh)=O functionality is fairly acidic, and easily removed via treatment with organic bases such as DBU. […] The fluorophore II-7 gave substitution patterns that were followed for both red-shift and quantum yield optimization of carbostyril fluorophores. Following the guidelines within the scaffold, with placement of electron donating groups in the 6- and 7-positions, and an electron-withdrawing group in the 3-position, yielded a fluorophore with an emission of 505 nm and a quantum yield of 45% in CHCl3.

[2] = Stability of phosphonimidate form toward hydrolysis/heat; conditions: 100° C. reaction conditions
From the text: Disclosed herein is a synthetic approach to assemble the 2-λ^5-phosphaquinoline in one step from easily attainable starting materials. By treatment of a 2-ethynyl aniline (for example, accessible from Sonogashira cross-coupling with commercially available 2-iodoanilines) with triphenylphosphite, the disclosed compounds were synthesized in good to modest yields (Table 1). Typically, upon isolation and purification via hot recrystallization in ambient atmosphere, the phosphaquinoline partially hydrolyzed, yielding the phosphaquinolinone form and releasing phenol. However, the phosphonimidate form (A) appeared to be stable at room temperature. This reaction was tolerant to a variety of electron-rich and electron-poor arenes, as well as alkyl functionality attached at the ethynyl.
Except for compounds with a 2-pyridyl substituent, the phosphonimidate compounds tended to hydrolyze when heated in ambient atmosphere to give the phosphonamidate. If the reaction was performed rigorously water-free, and worked up with minimal exposure to ambient atmosphere, the phosphonimidate forms (I) can be isolated for all of the derivatives. […] This and stability of the phosphonimidate toward hydrolysis at room temperature lent credence to increased stability from delocalization within the heterocycle.

Dimerization in solution = experiment: Dimerization in solution
From the text: This corresponded to an energy of 1.5 kcal/mol for each H-bond, which was quite high compared to cis-amides such as pyrrolidone or caprolactam, who experience dimerization constants from 1-5 M^−1 in CHCl3. […] As a result, this dimer deviated from the trends previously reported, where each attractive interaction gave −1.88 kcal/mol of energy to ΔG, and each repulsive secondary interaction gave +0.74 kcal/mol. Following the same schema, the two repulsive secondary interactions in the present dimer yielded only +0.76 kcal/mol of destabilization, about half of what was expected.

[3] = TEA added, in CHCl3 (deprotonated N-H)

Row | SMILES | fluorescence emission (em) ([1]; solvent not stated) | fluorescence excitation (ex) ([1]; solvent not stated) | fluorescence emission (em) ([1]; CHCl3, neutral form) | fluorescence emission (em) ([1]; MeCN) | also measured
1 | O=c1[nH]c2ccccc2cc1-c1ccccc1 [3-Ph-carbostyril, reference compound] | 410 nm | 345 nm |  |  | 
2 | CCOC(=O)c1ccc(C2=Cc3ccccc3N=P2(Oc2ccccc2)Oc2ccccc2)cc1 [I-2, ethyl 4-(2,2-diphenoxy-2-λ^5-benzo[e][1,2]azaphosphinin-3-yl)benzoate] |  |  |  |  | stability under reaction conditions [2]: quite stable
3 | N#Cc1ccc(C2=Cc3ccccc3NP2(=O)Oc2ccccc2)cc1 (centres unmarked) [II-1, 4-(2-oxido-2-phenoxy-1H-benzo[e][1,2]azaphosphinin-3-yl)benzonitrile] |  |  | 430 nm | 450 nm | energy for each H-bond (Dimerization in solution; from dimerization constant in CDCl3): 1.5 kcal/mol; dimerization constant (Dimerization in solution; in CDCl3): 133 ± 15 M⁻¹; fluorescence excitation (ex) ([1]; CHCl3, neutral form): 345 nm; fluorescence emission (em) [1, 3]: 542 nm; fluorescence excitation (ex) [1, 3]: 360 nm; Stokes shift ([1]; upon treatment with base (TEA) in CHCl3): 180 nm
4 | O=P1(Oc2ccccc2)Nc2ccccc2C=C1c1ccccc1 (centres unmarked) [II-3, 2-phenoxy-3-phenyl-1H-benzo[e][1,2]azaphosphinine 2-oxide] | 427 nm | 354 nm |  |  | 
5 | COc1ccc(C2=Cc3ccccc3NP2(=O)Oc2ccccc2)cc1 (centres unmarked) [II-4, 3-(4-methoxyphenyl)-2-phenoxy-1H-benzo[e][1,2]azaphosphinine 2-oxide] |  |  | 411 nm | 411 nm | 
6 | N#Cc1ccc(C2=Cc3cc4c(cc3NP2(=O)Oc2ccccc2)OCO4)cc1 (centres unmarked) [II-7, 4-(2-oxido-2-phenoxy-1H-[1,3]dioxolo[4′,5′:4,5]benzo[1,2-e][1,2]azaphosphinin-3-yl)benzonitrile] |  |  | 505 nm |  | quantum yield ([1]; in CHCl3): 45%
